Reference: patent EP0373216A1, “CEPHALOSPORIN COMPOUNDS OR THEIR SALTS, PROCESS FOR THEIR PREPARATION, AND PARMACEUTICAL COMPOSITIONS” (TEIJIN LIMITED, priority 1987, dated 1988)
Values after ≈ are worked out from the molar mass of the structure shown.

Assays:
[1] = tested on: alkali phosphatase (derived from calf intestines); experiment: Conversion by alkali phosphatase, analyzed by liquid chromatography; assay type: in vitro ADME; conditions: 2 mg in 1 ml glycine buffer pH 7.0, 20U alkali phosphatase, 37°C for 1 hour, liquid chromatography RP-18, UV 260 nm
Description: 2 mg of the captioned compound was dissolved in 1 ml of a glycine buffer having pH of 7.0, and 20U of commercial alkali phosphatase (derived from calf intestines) was charged. The solution was kept at 37°C for 1 hour, and then analyzed by liquid chromatography [column: RP-18, elution solvent: a water/methanol solvent mixture, detection: UV wavelength 260 nm].

B. subtilis ATCC 6633 = experiment: In vitro antibacterial activity, agar disc dilution method; assay type: cell-based; conditions: Bacillus subtilis, ATCC6633; B. subtilis ATCC 6633; Mueller Hinton agar, 10^6/ml, 37°C for 16 hours; read-out: minimum growth inhibitory concentration (MIC)
Description: (§1) An in vitro antibacterial activity was measured by an agar disc dilution method.
(§2) Varied test bacteria were cultivated overnight in triptophane-soybroth. A Mueller Hinton agar containing the compound of this invention in varied concentrations was streaked with one platinum loopful of each of the bacteria (number of living cells 10^6/ml).

E. cloacae 963 = experiment: as above; assay type: cell-based; conditions: Enterobacter cloacae; E. cloacae 963; Mueller Hinton agar, 10^6/ml, 37°C for 16 hours; read-out: minimum growth inhibitory concentration (MIC)
Description: as §1, §2

E. coli K12C600 = experiment: as above; assay type: cell-based; conditions: Escherichia coli; E. coli K12C600; Mueller Hinton agar, 10^6/ml, 37°C for 16 hours; read-out: minimum growth inhibitory concentration (MIC)
Description: as §1, §2

K. pneumoniae PC I 602 = experiment: as above; assay type: cell-based; conditions: Klebsiella pneumoniae, PCI602; K. pneumoniae PC I 602; Mueller Hinton agar, 10^6/ml, 37°C for 16 hours; read-out: minimum growth inhibitory concentration (MIC)
Description: as §1, §2

M. euteus ATCC 9341 = experiment: as above; assay type: cell-based; conditions: M. euteus ATCC 9341; Mueller Hinton agar, 10^6/ml, 37°C for 16 hours; read-out: minimum growth inhibitory concentration (MIC)
Description: as §1, §2

P. aeruginosa NCTC 1049 = experiment: as above; assay type: cell-based; conditions: Pseudomonas aeruginosa, NCTC1049; P. aeruginosa NCTC 1049; Mueller Hinton agar, 10^6/ml, 37°C for 16 hours; read-out: minimum growth inhibitory concentration (MIC)
Description: as §1, §2

P. morganii IFO 3445 = experiment: as above; assay type: cell-based; conditions: Morganella morganii, IFO3445; P. morganii IFO 3445; Mueller Hinton agar, 10^6/ml, 37°C for 16 hours; read-out: minimum growth inhibitory concentration (MIC)
Description: as §1, §2

P. rettgeric IFO3850 = experiment: as above; assay type: cell-based; conditions: P. rettgeric IFO3850; Mueller Hinton agar, 10^6/ml, 37°C for 16 hours; read-out: minimum growth inhibitory concentration (MIC)
Description: as §1, §2

P. vulgalis OX-19 = experiment: as above; assay type: cell-based; conditions: P. vulgalis OX-19; Mueller Hinton agar, 10^6/ml, 37°C for 16 hours; read-out: minimum growth inhibitory concentration (MIC)
Description: as §1, §2

S. aureus Terajima = experiment: as above; assay type: cell-based; conditions: Staphylococcus aureus; S. aureus Terajima; Mueller Hinton agar, 10^6/ml, 37°C for 16 hours; read-out: minimum growth inhibitory concentration (MIC)
Description: as §1, §2

S. enteritidis G14 = experiment: as above; assay type: cell-based; conditions: Salmonella enterica; S. enteritidis G14; Mueller Hinton agar, 10^6/ml, 37°C for 16 hours; read-out: minimum growth inhibitory concentration (MIC)
Description: as §1, §2

S. marcescens I AM 1184 = experiment: as above; assay type: cell-based; conditions: Serratia marcescens, IAM1184; S. marcescens I AM 1184; Mueller Hinton agar, 10^6/ml, 37°C for 16 hours; read-out: minimum growth inhibitory concentration (MIC)
Description: as §1, §2

S. pyogenes Cook = experiment: as above; assay type: cell-based; conditions: Streptococcus pyogenes; S. pyogenes Cook; Mueller Hinton agar, 10^6/ml, 37°C for 16 hours; read-out: minimum growth inhibitory concentration (MIC)
Description: as §1, §2

S. typhic 901 = experiment: as above; assay type: cell-based; conditions: Mueller Hinton agar, 10^6/ml, 37°C for 16 hours, read-out: minimum growth inhibitory concentration (MIC)
Description: as §1, §2

Structure (SMILES) | Rf value of the main peak compared with the 6,7-dihydroxy-2-isoquinoliniummethyl compound (compound of Example 1) [1] | MIC (B. subtilis ATCC 6633) [µg/mL] | MIC (E. cloacae 963) [µg/mL] | MIC (E. coli K12C600) [µg/mL] | MIC (K. pneumoniae PC I 602) [µg/mL] | MIC (M. euteus ATCC 9341) [µg/mL] | MIC (P. aeruginosa NCTC 1049) [µg/mL] | MIC (P. morganii IFO 3445) [µg/mL] | MIC (P. rettgeric IFO3850) [µg/mL] | MIC (P. vulgalis OX-19) [µg/mL] | MIC (S. aureus Terajima) [µg/mL] | MIC (S. enteritidis G14) [µg/mL] | MIC (S. marcescens I AM 1184) [µg/mL] | MIC (S. pyogenes Cook) [µg/mL] | MIC (S. typhic 901) [µg/mL]
Nc1nc(/C(=N/Oc2ccccc2)C(=O)N[C@@H]2C(=O)N3C(C(=O)[O-])=C(C[n+]4ccc5cc(O)c(OS(=O)(=O)O)cc5c4)CS[C@H]23)cs1 [Example 6, (6R,7R)-7-[(Z)-2-(2-amino-1,3-thiazol-4-yl-2-phenoxyimino)acetamide]-3-(6,7-hydroxy-7-sulfonyloxy-2-isoquinolinium)methyl-3-cephem-4-carboxylate] | confirmed to agree |  |  |  |  |  |  |  |  |  |  |  |  |  | 
Nc1nc(/C(=N/Oc2ccc(CC(=O)O)cc2)C(=O)N[C@@H]2C(=O)N3C(C(=O)[O-])=C(C[n+]4ccc5cc(O)c(O)cc5c4)CS[C@H]23)cs1 [Compound V] |  | 1.6 (≈ 2.36 µM) | 0.05 (≈ 0.0739 µM) | 0.02 (≈ 0.0296 µM) | 0.03 (≈ 0.0443 µM) | 1.6 (≈ 2.36 µM) | 0.05 (≈ 0.0739 µM) | < 0.01 | < 0.01 | < 0.01 | 1.6 (≈ 2.36 µM) | 0.02 (≈ 0.0296 µM) | 0.8 (≈ 1.18 µM) | 0.8 (≈ 1.18 µM) | 0.02 (≈ 0.0296 µM)
Nc1nc(/C(=N/Oc2ccccc2Cl)C(=O)N[C@@H]2C(=O)N3C(C(=O)[O-])=C(C[n+]4ccc5cc(O)c(O)cc5c4)CS[C@H]23)cs1 [Compound II, (6R,7R)-7-[(Z)-2-(2-amino-1,3-thiazol-4-yl)-2-(o-chlorophenoxyimino)-acetamide]-3-(6,7-dihydroxy-2-isoquinolinium)methyl-3-cephem-4-carboxylate] |  | 1.6 (≈ 2.45 µM) | < 0.01 | < 0.01 | < 0.01 | 0.8 (≈ 1.22 µM) | 0.8 (≈ 1.22 µM) | < 0.01 | < 0.01 | < 0.01 | 0.2 (≈ 0.306 µM) | < 0.01 | < 0.01 | 0.2 (≈ 0.306 µM) | < 0.01
